Source: US8188303B2, “Anti-malarial compound isolated from Gomphostema niveum” (The Director General, Defence Research and Development …, priority 2005, dated 2012)
Converted amounts (≈) assume the structure as drawn.

What was measured:
P. falciparum = assay: In-vitro evaluation of anti-malarial activity (schizont maturation inhibition); type: cell-based, Plasmodium falciparum
Procedure: Two strains of chloroquine sensitive strain and one strain of P. falciparum isolated from patients from Jagadalpur region of India and maintained in vitro. The cultures are maintained as per the standard culture procedures.
The parasites are growth in O +ve human RBCs with the addition of RPMI 1640 culture media with 10% Human serum as supplement. The cells are incubated at 37° C. at 5% CO2 atmosphere and the parasitemia is checked after 24 hrs and media changed. When parasitemia exceeded 10% parasitized cells the culture is subcultured with the addition of fresh RBC. The parasite growth is synchronized by the sorbitol lysis method and synchronized ring stage parasites are used for testing. The in-vitro testing is done in 100 μI complete media per well with the addition of 10 μI of erythrocytes with 2% of ring stages of parasites. All the tests are run in duplicates with in 96 well flat bottomed tissue culture plate and double dilutions are made for each of the test compound with individual control wells only with the RPMI 1640 and human serum supplement. The growth of the parasites in the presence of each of the test compound, chloroquine and control wells are monitored by the examination of the giemsa stained blood smears made after 24 hrs of incubation. The counting is done for the presence of mature schizsonts among 200 asexual parasites and the average schizont maturation inhibition is calculated by the formula (1−Nt/Nc)×100 where in Nt and Nc represent the number of schizont present in the test and control respectively. The IC 50 and IC 90 values are calculated by using the commercial statistical package Sigmastat.
As controls IC50 chloroquine and artether were also determined.

P. berghi = assay: In-vivo anti-malarial activity; set-up: species or system Plasmodium berghi; details: result in words
[1] = schizont maturation inhibition, synchronized ring stage parasites in human RBCs, 24 hrs incubation

CCN(CC)CCCC(C)Nc1ccnc2cc(Cl)ccc12 (stereo not drawn) [Chloroquine, reference compound]
IC50 (P. falciparum; Plasmodium falciparum, 24 h): 12.9 µg/mL (≈ 40.2 µM) | IC90 (P. falciparum; Plasmodium falciparum, 24 h): 23.7 µg/mL (≈ 74.1 µM)

CC1=CC(=O)CC2C1(C)CCC(CO)C2(C)CCC1=CCOC1=O (stereo not drawn) [Gomphostenin, 3-[2-(2-Hydroxymethyl-1,4a,5-trimethyl-7-oxo-1,2,3,4,4a,7 8,8a-octahydronaphthalen-1-yl)-ethyl]-5H-furan-2-one]
inhibitory activity against P. falciparum in-vitro (P. falciparum; in-vitro, result in words): significant inhibitory activity | IC50 (P. falciparum; [1]): 8.23 µg/mL (≈ 24.8 µM) | IC90 (P. falciparum; [1]): 24.29 µg/mL (≈ 73.1 µM) | inhibitory activity against P. berghi in-vivo (P. berghi): significant inhibitory activity
